The experiment addresses human serum albumin (HSA, nonglycated) (Homo sapiens, UniProt P02768). In words: fluorescence polarization. It is filed as binding.

Sequence of human serum albumin (HSA, nonglycated) (P02768 25-609): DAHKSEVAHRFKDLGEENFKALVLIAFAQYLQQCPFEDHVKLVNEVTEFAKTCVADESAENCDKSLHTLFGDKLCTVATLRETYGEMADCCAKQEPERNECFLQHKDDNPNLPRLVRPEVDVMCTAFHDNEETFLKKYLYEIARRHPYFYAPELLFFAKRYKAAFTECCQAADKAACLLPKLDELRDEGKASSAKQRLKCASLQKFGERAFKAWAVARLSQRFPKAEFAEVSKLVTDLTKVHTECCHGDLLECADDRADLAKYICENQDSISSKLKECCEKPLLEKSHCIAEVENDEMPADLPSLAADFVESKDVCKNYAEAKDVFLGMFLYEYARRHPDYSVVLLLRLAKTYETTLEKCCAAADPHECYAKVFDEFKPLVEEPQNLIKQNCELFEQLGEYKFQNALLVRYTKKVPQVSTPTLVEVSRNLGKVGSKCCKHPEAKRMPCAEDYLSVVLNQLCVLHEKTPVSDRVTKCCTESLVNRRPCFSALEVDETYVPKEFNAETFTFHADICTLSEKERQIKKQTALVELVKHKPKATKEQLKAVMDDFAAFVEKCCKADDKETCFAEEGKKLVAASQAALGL

The compound `O=C(O)CCN(Cc1ccc(C(F)(F)F)cc1B(O)O)Cc1c2ccccc2c(CN(CCC(=O)O)Cc2ccc(C(F)(F)F)cc2B(O)O)c2ccccc12` [compound 8, 3,3′-((anthracene-9,10-diylbis(methylene))bis((2-borono-4-(trifluoromethyl)benzyl)azanediyl))dipropionic acid] showed a Kd of 2 µM.
